Values after ≈ are worked out from the molar mass of the structure shown. Where two headings read alike, the source gives them in different places. Values belong to the molecule of their own block, whether it stands above or below them.
Legend:
normal FL cells = assay: in vitro; format: cell-based; conditions: FL normal cells, MTT
Experimental: (§1) The cell lines were cultured in a cell medium (Dulbecco’s modified eagle’s or RPMI 1640) enriched with 10% (v/v) fetal bovine serum and 2% (v/v) Penicillin-Streptomycin (10,000 U/mL). First, old medium was removed out of the flask when the cells reached approximately 80% confluence. Next, cells were taken from the flasks surface using trypsin-EDTA solution and then subjected to centrifugation. Following, the cell pellet was suspended with fresh media and was inoculated into wells.
(§2) A cell suspension containing approximately 1 × 10^4 cells in 100 μL was seeded into the wells of 96-well culture plates. […]. The final volume of the wells was set to 200 μL by medium. Cell proliferation assay was evaluated by MTT (yellow tetrazolium MTT (3-(4,5-dimethylthiazolyl-2)-2,5-diphenyltetrazolium bromide) methods. Briefly, an MTT stock solution (5 mg of MTT/mL of distilled water) was filtered and kept at −20 °C until use. The cells were exposed to an MTT reagent (consisting of one parts of MTT stock solutions and nine parts of fresh RPMI 1640 without phenol red) for 4 h to form MTT formazan dye followed by the dye dissolved in DMSO with Sorenson’s buffer for 30 min at room temperature and then the plate was measured at 560 nm, with 690 nm as a reference interval, using a microplate reader. Each experiment was repeated at least three times for each cell line.
(§3) IC50 value is a concentration that inhibits half of the cells in vitro. The half maximal inhibitory concentration (IC50) of the test and control compounds was calculated using XLfit5 or excel spreadsheet and represent in μM at 95% confidence intervals. The proliferation assay results were expressed as the percent inhibition according to the following formula: % Inhibition = [1 - (Absorbance of Treatments /Absorbance of DMSO) × 100]. Three dose response parameters (GI50, TGI, LC50) were calculated according to the following formulas using the absorbance measurements of time zero (Tz), control growth (C), and test growth in the presence of drug (Ti). Growth inhibition of 50% (GI50) was calculated from [(Ti-Tz)/(C-Tz)] × 100 = 50, which is the drug concentration resulting in a 50% reduction in the net growth increase in control cells during the drug incubation. The drug concentration resulting in total growth inhibition (TGI) was calculated from Ti = Tz. The LC50 indicating a net loss of cells following treatment was calculated from [(Ti-Tz)/Tz] × 100 = −50.

calf thymus DNA (CT-DNA) = conditions: CT-DNA binding experiments in the literature ref [32]–[33]; cited from earlier work
HeLa = assay: cells; format: cell-based; conditions: MTT
Experimental: as §1, §2, §3

C6 (Rat brain glioma) = assay: cells; format: cell-based; conditions: C6, MTT
Experimental: as §1, §2, §3

Hep3B = assay: cells; format: cell-based; conditions: MTT
Experimental: as §1, §2, §3

HT29 = assay: cells; format: cell-based; conditions: HT29, MTT
Experimental: as §1, §2, §3

A549 = assay: cells; format: cell-based; conditions: A549, MTT
Experimental: as §1, §2, §3

MCF7 = assay: cells; format: cell-based; conditions: MCF7, MTT
Experimental: as §1, §2, §3

[1] = LDH cytotoxic activity assay, C6; format: cell-based; conditions: rat, C6 glioma cells, C6, 25 μg/mL
Experimental: as §1
(§4) Approximately 5 × 10^3 cells in 100 μL were placed into 96-well plates as triplicates and treated with 25, 50, 75, and 100 μg/mL concentrations of test compounds at 37 °C with 5% CO2 for 24 h. LDH activity was obtained by determining absorbance at 492–630 nm using a microplate reader.

[2] = LDH cytotoxic activity assay, A549; format: cell-based; conditions: human, A549 cells, A549, 25 μg/mL
Experimental: as §1, §4

[3] = LDH cytotoxic activity assay, HeLa; format: cell-based; conditions: human, HeLa cells, 25 μg/mL
Experimental: as §1, §4

[4] = LDH cytotoxic activity assay, Hep3B; format: cell-based; conditions: human, Hep3B cells, 25 μg/mL
Experimental: as §1, §4

[5] = LDH cytotoxic activity assay, HT29; format: cell-based; conditions: human, HT29 cells, HT29, 25 μg/mL
Experimental: as §1, §4

[6] = LDH cytotoxic activity assay, MCF7; format: cell-based; conditions: human, MCF7 cells, MCF7, 25 μg/mL
Experimental: as §1, §4

[7] = LDH cytotoxic activity assay, FL; format: cell-based; conditions: human, FL cells (normal cells), FL, 25 μg/mL
Experimental: as §1, §4

Structure (SMILES): N.N.[Cl][Pt][Cl] [Cisplatin, cisplatin, reference compound]
IC50 (normal FL cells): 52.79 µg/mL
binding constant (Kb) (calf thymus DNA (CT-DNA)): 57300 M⁻¹
IC50 (HeLa): 50.29 µg/mL
IC50 (C6 (Rat brain glioma)): 33.08 µg/mL
IC50 (Hep3B): 48.69 µg/mL
IC50 (HT29): 40.39 µg/mL
IC50 (A549): 60.49 µg/mL
IC50 (MCF7): 63.79 µg/mL

IC50 (HeLa; Homo sapiens, read-out: IC50): 61.6 µg/mL (≈ 473 µM)
IC50 (C6 (Rat brain glioma); Rattus norvegicus, read-out: IC50): 54.3 µg/mL (≈ 417 µM)
IC50 (Hep3B; Homo sapiens, read-out: IC50): 62.9 µg/mL (≈ 483 µM)
IC50 (HT29; Homo sapiens, HT-29, read-out: IC50): 65.2 µg/mL (≈ 501 µM)
IC50 (A549; Homo sapiens, read-out: IC50): 69.8 µg/mL (≈ 537 µM)
IC50 (MCF7; Homo sapiens, read-out: IC50): 74.2 µg/mL (≈ 570 µM)
Structure (SMILES): O=c1[nH]cc(F)c(=O)[nH]1 [Compound 5FU, 5-fluorouracil, reference compound]
cytotoxicity at 24 h, 25 μg/mL [1]: 10%
cytotoxicity at 24 h, 25 μg/mL [2]: 9.19%
cytotoxicity at 24 h, 25 μg/mL [3]: 8.83%
cytotoxicity at 24 h, 25 μg/mL [4]: 9.67%
cytotoxicity at 24 h, 25 μg/mL [5]: 7.91%
IC50 (normal FL cells; read-out: IC50): 59.1 µg/mL (≈ 454 µM)
cytotoxicity at 24 h, 25 μg/mL [6]: 7.69%
cytotoxicity at 24 h, 25 μg/mL [7]: 8.44%
binding constant (Kb) (calf thymus DNA (CT-DNA)): 97000 M⁻¹
